How the values were obtained:
[1] = tested on: thiA-lacZ fusion (ΩamyE::thiA-lacZ) in B. subtilis TH21; type: cell-based, Bacillus subtilis; settings: for repression of thiA-lacZ expression: 1 μM in shake-flask culture, early logarithmic phase (OD600=0.8-0.9), compared to minimal medium without thiamin; for repressing activity on thiA-lacZ expression: 1 μM each
Description: The strategy to isolate thiamin deregulated mutants of B. subtilis was to mutagenize bacteria that contained a thiA-lacZ fusion and then screen for colonies on XGAL-containing medium that were Lac^+ (i.e. blue colonies) in the presence of TPP or thiamin. A 732 bp-long DNA fragment containing 417 bp of the 5′ promoter region of thiA was prepared by PCR using standard methods and cloned unidirectionally in front of the promoterless lacZ gene of the pDG1728 vector (Guerout-Fleury et al. (1996) Gene 180:57-61), resulting in plasmid pTH12. This vector is designed to introduce ectopic transcriptional lacZ fusions into the non-essential amyE locus of B. subtilis. Plasmid pTH12 was linearized by restriction enzyme digestion and transformed into B. subtilis PY79, selecting for colonies that were resistant to 100 μg/ml spectinomycin.

[2] = tested on: B. subtilis PY79 gene transcripts; assay: Microarray profiling of transcript levels in response to TPP; type: cell-based, Bacillus subtilis; settings: wild-type cells, exponential phase, minimal medium without TPP vs with TPP
Description: In order to perform microarray profiling, PY79 was grown in shake-flask cultures that contained 50 ml Spizizen minimal medium with or without added thiamin pyrophosphate. Overnight cultures were diluted to Klett=10 units into fresh medium and grown to exponential growth phase (Klett=100 units). Cells from half of the culture were collected by centrifugation, and the total RNA was immediately extracted as previously described (Lee et al. (2001) J. Bacteriol. 183:7371-7380). The remaining culture was grown to early stationary phase before RNA extraction. Early stationary phase was judged to be 30 min after glucose exhaustion; glucose content in the medium was measured by a glucose analyzer 2 (Beckman, Fullerton, Calif.) using standard procedures. Preparation of labeled cDNA targets, microarray hybridization and staining procedures, and data analysis are described in Lee et al. above.

Cc1ncc(CO)c(N)n1 [HMP, 4-amino-5-hydroxymethyl-2-methylpyrimidine]
repression of thiA-lacZ expression [1]: 6- to 7 fold

Cc1ncc(C[n+]2csc(CCOP(=O)(O)OP(=O)(O)O)c2C)c(N)n1 [TPP, thiamin pyrophosphate]
transcript ratio wt−vit/wt+vit, gene dxs (yqiE) [2]: n/c
transcript ratio wt−vit/wt+vit, gene thiA [2]: 62
transcript ratio wt−vit/wt+vit, gene thiC [2]: n/c
transcript ratio wt−vit/wt+vit, gene thiD1 (yjbV) [2]: 32
transcript ratio wt−vit/wt+vit, gene thiD2 [2]: n/c^b
transcript ratio wt−vit/wt+vit, gene thiF (yjbU) [2]: 90
transcript ratio wt−vit/wt+vit, gene thiG (yjbT) [2]: 82
transcript ratio wt−vit/wt+vit, gene thiK [2]: n/c
transcript ratio wt−vit/wt+vit, gene thiL (ydiA) [2]: n/c
transcript ratio wt−vit/wt+vit, gene thiO (goxB) [2]: 67
transcript ratio wt−vit/wt+vit, gene thiS (yjbS) [2]: 84
transcript ratio wt−vit/wt+vit, gene ykoC [2]: 12
transcript ratio wt−vit/wt+vit, gene ykoD [2]: 26
transcript ratio wt−vit/wt+vit, gene ykoE [2]: 17
transcript ratio wt−vit/wt+vit, gene ykoF [2]: 20
transcript ratio wt−vit/wt+vit, gene ylmB [2]: 5.0
transcript ratio wt−vit/wt+vit, gene yloS [2]: 1.6
transcript ratio wt−vit/wt+vit, gene ytbJ [2]: n/c
transcript ratio wt−vit/wt+vit, gene yuaA [2]: 7.4

Nc1ncnc2c1ncn2[C@@H]1O[C@H](CO)[C@@H](O)[C@H]1O [adenosine]
repressing activity on thiA-lacZ expression [1]: showed repressing activity

Cc1ncc(C[n+]2csc(CCO)c2C)c(N)n1 [thiamin]
repression of thiA-lacZ expression [1]: approximately 80 fold

c1cscn1 [thiazole]
repressing activity on thiA-lacZ expression [1]: showed repressing activity

Source: US8329395B2 (priority 2003, dated 2012)
